From US6911443B2 (Bayer Aktiengesellschaft, priority 2000, dated 2005)
Read-outs that look alike come from different tables or passages of the source.

Biological target: T1, human Syk (GST-Syk) (Homo sapiens, UniProt P43405)
T1 construct: A cDNA fragment encoding human Syk openreading frame was cloned; made in house; host or cells: Sf21 insect cells (baculovirus, transfer vector pAcG2T)
Assay: Syk tyrosine kinase inhibitory assay
Assay type: biochemical
In short: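 GST-tagged human Syk from baculovirus/Sf21, 0.65 nM final, with 3 μM biotinylated 30-residue activation-loop peptide and 30 μM ATP in Tris pH 8.0/MgCl2 buffer, 0.25% DMSO; 1 h at room temperature. Phosphopeptide captured on streptavidin, detected by europium-labelled anti-phosphotyrosine 4G10 time-resolved fluorescence.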

[1] = in vitro, compounds as yielded by solid phase synthesis, purity about 40 to 90%, read-out: Activity grade (IC50 class)
[2] = Table 13, read-out: Activity grade
[3] = in vitro, compounds as yielded by solid phase synthesis, purity about 40 to 90%
[4] = Table 11, read-out: Activity grade
[5] = Table 16, read-out: Activity grade
[6] = Table 14, read-out: Activity grade
[7] = Table 17, IC50 classes, read-out: Activity grade

## CCSc1nc(-c2ccc(OC)c(OC(C)C)c2)cc2nccn12 [Example 4-3]
[1]
  IC50: < 0.5 µM

## COc1ccc(-c2cc3nccn3c(Nc3cccc(C(=O)O)c3C)n2)cc1OC [Example 11-51]
[1]
  IC50: 0.5 to 2 µM

## CCCCOC(=O)CSc1nc(-c2ccc(OC)c(OC)c2)cc2nccn12 [Example 9-92]
[1]
  IC50: 0.5 to 2 µM

## COc1ccc(-c2cc3nccn3c(Sc3cc(C)ccc3C)n2)cc1OC [Example 13-1]
[1]
  IC50: 0.5 to 2 µM

## COc1ccc(-c2cc3nccn3c(Nc3cccc(S(C)(=O)=O)c3)n2)cc1OC [Example 11-120]
[1]
  IC50: < 0.5 µM

## CCSc1nc(-c2ccc(O)c(OC)c2)cc2nccn12 [material for Example 3, 4-(5-Ethylsulfanyl-imidazo[1,2-c]pyrimidin-7-yl)-2-methoxyphenol]
[1]
  IC50: < 0.5 µM

## COc1ccc(-c2cc3nccn3c(SCc3ccccc3)n2)cc1OC [Example 14-2]
[2]
  IC50: < 0.5 µM

## COc1ccc(-c2cc3nccn3c(N3CCC(Cc4ccccc4)CC3)n2)cc1OC [Example 9-59]
[3]
  Activity grade (IC50 class): C-D

## COc1ccc(-c2cc3nccn3c(N3C(=O)c4ccccc43)n2)cc1OC [Example 9]
[1]
  IC50: 2 to 10 µM

## COc1ccc(-c2cc3nccn3c(NCc3ccccc3)n2)cc1OC [Example 9-10]
[1]
  IC50: 0.5 to 2 µM

## COc1ccc(-c2cc3nccn3c(N3CCC4(CC3)OCCO4)n2)cc1OC [Example 9-66]
[1]
  IC50: 2 to 10 µM

## CCOC(=O)N1CCN(c2nc(-c3ccc(OC)c(OC)c3)cc3nccn23)CC1 [Example 9-72]
[1]
  IC50: 2 to 10 µM

## c1ccc(Nc2nc(-c3ccc4c(c3)OCCO4)cc3nccn23)cc1 [Example 12-21]
[4]
  IC50: 0.5 to 2 µM

## COc1ccc(-c2cc3nccn3c(SCCN(C)C)n2)cc1OC [Example 14-27]
[2]
  IC50: < 0.5 µM

## COc1ccc(-c2cc3nccn3c(Nc3ccc(Br)cc3C(N)=O)n2)cc1OC [Example 11-97]
[1]
  IC50: < 0.5 µM

## COc1ccc(-c2cc3nccn3c(N3CCN(c4ccc(Cl)cc4)CC3)n2)cc1OC [Example 9-39]
[1]
  IC50: 2 to 10 µM

## C=CCN(c1ccccc1)c1nc(-c2ccc(OC)c(OC)c2)cc2nccn12 [Example 11-47]
[1]
  IC50: < 0.5 µM

## CCSc1nc(-c2ccc(OCCOC)c(OC)c2)cc2nccn12 [Example 17-10]
[5]
  IC50: 0.5 to 2 µM

## COc1ccc(-c2cc3nccn3c(Sc3ccccc3CO)n2)cc1OC [Example 13-7]
[1]
  IC50: < 0.5 µM

## CCSc1nc(-c2ccc(NCCCN3CCCC3=O)c(OC)c2)cc2nccn12 [Example 17-3]
[5]
  IC50: < 0.5 µM

## COc1ccc(-c2cc3nccn3c(SCc3ccc(Cl)cc3)n2)cc1OC [Example 14-15]
[2]
  IC50: 0.5 to 2 µM

## COc1ccc(-c2cc3nccn3c(Sc3ccc(SCC(=O)O)cc3)n2)cc1OC [Example 15-3]
[6]
  IC50: < 0.5 µM

## COC(=O)[C@@H]1CCCN1c1nc(-c2ccc(OC)c(OC)c2)cc2nccn12 [Example 9-71]
[3]
  Activity grade (IC50 class): C-D

## COc1ccc(-c2cc3ncnn3c(Sc3ccc(NCC(=O)O)cc3)n2)cc1OC [Example 14-11]
[2]
  IC50: < 0.5 µM

## COc1ccc(-c2cc3nccn3c(N(C)c3ccccc3)n2)cc1OC [Example 11-18]
[1]
  IC50: < 0.5 µM

## COc1ccc(-c2cc3nccn3c(N3CCN(C)CC3)n2)cc1OC [Example 9-37]
[1]
  IC50: 0.5 to 2 µM

## COc1ccc(-c2cc3nccn3c(Nc3ccccc3)n2)cc1OCCN1CCOCC1 [Example 12-25]
[4]
  IC50: < 0.5 µM

## COc1cccc(Nc2nc(-c3ccc(OC)c(OC)c3)cc3nccn23)c1 [Example 11-58]
[1]
  IC50: < 0.5 µM

## COc1ccc(-c2cc3nccn3c(Sc3cccc(CC(O)O)c3)n2)cc1OC [Example 13-20]
[1]
  IC50: < 0.5 µM

## COc1ccc(-c2cc3nccn3c(Nc3cccc(OC(F)(F)F)c3)n2)cc1OC [Example 11-69]
[1]
  IC50: < 0.5 µM

## COc1ccc(-c2cc3nccn3c(SCCN(C(C)C)C(C)C)n2)cc1OC [Example 14-19]
[2]
  IC50: 0.5 to 2 µM

## COc1ccc(-c2cc3nccn3c(Nc3ccc(N(C)C)cc3)n2)cc1OC [Example 11-34]
[1]
  IC50: < 0.5 µM

## COc1ccc(-c2cc3nccn3c(Sc3ccc(CCC(=O)O)cc3)n2)cc1O [Example 13-24]
[1]
  IC50: < 0.5 µM

## COc1ccc(-c2cc3nccn3c(N(C)c3ccc(Cl)cc3)n2)cc1OC [Example 11-45]
[1]
  IC50: 0.5 to 2 µM

## COc1cc(-c2cc3nccn3c(Sc3ccc(CCC(=O)O)cc3)n2)ccc1O [Example 13-27]
[1]
  IC50: < 0.5 µM

## COc1ccc(N(C)c2nc(-c3ccc(OC)c(OC)c3)cc3nccn23)cc1 [Example 11-49]
[1]
  IC50: 0.5 to 2 µM

## COc1ccc(-c2cc3nccn3c(Oc3ccccc3Br)n2)cc1OC [Example 14-4]
[2]
  IC50: 0.5 to 2 µM

## COc1ccc(-c2cc3ncnn3c(Nc3ccc(CCCC(=O)O)cc3C(N)=O)n2)cc1OC [Example 11-106]
[1]
  IC50: < 0.5 µM

## COc1ccc(-c2cc3nccn3c(SCc3cccs3)n2)cc1OC [Example 14-31]
[2]
  IC50: < 0.5 µM

## COc1ccc(-c2cc3nccn3c(Nc3ccc(F)c(F)c3)n2)cc1OC [Example 11-57]
[1]
  IC50: < 0.5 µM

## COc1ccc(Nc2nc(-c3ccc(OCCN4CCOCC4)c(OC)c3)cc3nccn23)c(C(N)=O)c1 [Example 9-95]
[1]
  IC50: < 0.5 µM

## COc1ccc(-c2cc3nccn3c(Nc3ccccc3)n2)cc1NC(=O)CCC(=O)O [Example 2]
[7]
  IC50: < 0.5 µM

## COc1ccc(-c2cc3nccn3c(N3CCN(C(C)=O)CC3)n2)cc1OC [Example 9-49]
[1]
  IC50: 0.5 to 2 µM

## COc1ccc(-c2cc3nccn3c(N3CC[C@H](N(C)C)C3)n2)cc1OC [Example 9-78]
[1]
  IC50: 2 to 10 µM

## COc1ccc(-c2cc3nccn3c(Nc3cccnc3)n2)cc1OC [Example 12-7]
[4]
  IC50: < 0.5 µM

## COc1ccc(Nc2nc(-c3ccc(OC)c(OC)c3)cc3nccn23)c(OC)c1 [Example 11-65]
[1]
  IC50: < 0.5 µM

## COc1ccc(-c2cc3nccn3c(Sc3ccncc3C(=O)O)n2)cc1OC [Example 15-2]
[6]
  IC50: < 0.5 µM

## COc1ccc(-c2cc3nccn3c(Sc3ccc(S(=O)(=O)N4CCCC4)cc3)n2)cc1OC [Example 16-5]
Table 15, read-out: Activity grade
  IC50: < 0.5 µM

## COc1ccc(-c2cc3nccn3c(Nc3ccccc3OC(F)(F)F)n2)cc1OC [Example 11-10]
[1]
  IC50: 0.5 to 2 µM

## COc1ccc(-c2cc3nccn3c(NCCc3c[nH]c4ccccc34)n2)cc1OC [Example 9-83]
[1]
  IC50: < 0.5 µM

## CCSc1nc(-c2ccc(OC)c(OC(=O)N(C)C)c2)cc2nccn12 [Example 4-10]
Activity grade (IC50 class), in vitro, compounds as yielded by solid phase synthesis, purity about 40 to 90%
  IC50: 0.5 to 2 µM

## COc1ccc(-c2cc3nccn3c(Nc3ccc(C(=O)NCCCO)cc3)n2)cc1OC [Example 7]
[7]
  IC50: < 0.5 µM

## COC(=O)C(C)(C)Cc1ccc(Nc2nc(-c3ccc(OC)c(OC)c3)cc3nccn23)cc1 [Example 11-4]
[1]
  IC50: < 0.5 µM

## CCC(=O)c1ccc(Nc2nc(-c3ccc(OC)c(OC)c3)cc3nccn23)cc1 [Example 11-35]
[1]
  IC50: < 0.5 µM

## COc1ccc(-c2cc3nccn3c(N3CCN(c4ncccn4)CC3)n2)cc1OC [Example 9-41]
[1]
  IC50: 0.5 to 2 µM

## COc1ccc(-c2cc3nccn3c(N3CCC(O)CC3)n2)cc1OC [Example 9-69]
[1]
  IC50: 0.5 to 2 µM

## COc1ccc(-c2cc3nccn3c(Sc3ccc(CCC(N)=O)cc3)n2)cc1OC [Example 20]
[7]
  IC50: < 0.5 µM

## COc1cc(-c2cc3nccn3c(Sc3ccc(CCC(=O)O)cc3)n2)ccc1OCc1ccccc1 [Example 13-26]
[1]
  IC50: < 0.5 µM

## CCSc1nc(-c2ccc(OC(C)C)c(OC)c2)cc2nccn12 [Example 3-5]
[1]
  IC50: < 0.5 µM

## COc1ccc(-c2cc3nccn3c(Nc3cc(N)ccc3C(N)=O)n2)cc1OC [Example 11]
[7]
  IC50: < 0.5 µM
[1]
  IC50: < 0.5 µM

## CCSc1nc(-c2ccc(F)c(F)c2)cc2nccn12 [Example 8-7]
[3]
  Activity grade (IC50 class): C-D

## CCSc1nc(-c2ccc(SC)c(S(=O)(=O)N3CCN(CCO)CC3)c2)cc2nccn12 [Example 2-4]
[1]
  IC50: 0.5 to 2 µM

## CCOCCOc1ccc(-c2cc3nccn3c(Nc3ccccc3)n2)cc1OC [Example 12-20]
[4]
  IC50: < 0.5 µM

## CCN(CC)c1nc(-c2ccc(OC)c(OC)c2)cc2nccn12 [Example 9-56]
[1]
  IC50: 0.5 to 2 µM

## Cc1c(N)cccc1Oc1nc(-c2ccc(O)c(O)c2)cc2ncnn12 [Example 14]
[1]
  IC50: < 0.5 µM

## CCSc1nc(-c2ccc(OC)c(O)c2)cc2nccn12 [Example 4-2]
[1]
  IC50: < 0.5 µM

## COc1ccc(Nc2nc(-c3ccc(OC)c(OC)c3)cc3nccn23)cc1NCCN(C)CCO [Example 11-112]
[1]
  IC50: 0.5 to 2 µM

## COc1ccc(-c2cc3nccn3c(Sc3nccn3C)n2)cc1OC [Example 13-12]
[1]
  IC50: < 0.5 µM

## CCSc1nc(-c2ccc(OCCCN3CCCCC3)c(OC)c2)cc2nccn12 [Example 5-7]
[1]
  IC50: < 0.5 µM

## COc1ccc(-c2cc3nccn3c(Nc3cnccc3C(N)=O)n2)cc1OC [Example 12-45]
[4]
  IC50: < 0.5 µM

## COc1ccc(-c2cc3nccn3c(Sc3ccc(CCC(=O)O)cc3OC)n2)cc1OC [Example 9-94]
[1]
  IC50: < 0.5 µM

## COc1ccc(Nc2nc(-c3ccc(OC)c(OC)c3)cc3nccn23)c(C)c1 [Example 11-2]
[1]
  IC50: < 0.5 µM

## COc1ccc(-c2cc3nccn3c(Nc3ccccc3S(C)(=O)=O)n2)cc1OC [Example 11-119]
[1]
  IC50: < 0.5 µM

## COc1ccc(-c2cc3nccn3c(NC(=O)Nc3ccccc3)n2)cc1OC [Example 22]
[7]
  IC50: 0.5 to 2 µM

## COc1ccc(-c2cc3nccn3c(Nc3ccc4c(c3)n(C)c(=O)n4C)n2)cc1OC [Example 11-117]
[1]
  IC50: < 0.5 µM

## COc1ccc(-c2cc3nccn3c(N3CCOCC3)n2)cc1OC [Example 9-30]
[1]
  IC50: 2 to 10 µM

## CCSc1nc(-c2ccc(NC)c(OC)c2)cc2nccn12 [Example 17-14]
[5]
  IC50: 0.5 to 2 µM

## COc1ccc(-c2cc3nccn3c(Nc3ccc(Cl)cc3)n2)cc1OC [Example 11-61]
[1]
  IC50: < 0.5 µM

## COC(=O)CSc1nc(-c2ccc(OC)c(OC)c2)cc2nccn12 [Example 9-88]
[1]
  IC50: < 0.5 µM

## CCSc1nc(-c2ccc(NCCCn3ccnc3)c(OC)c2)cc2nccn12 [Example 17-11]
[5]
  IC50: < 0.5 µM
